We go through 15 compounds from patent US12503437B2, “1,1-dimethyl-2-[(E)-2-phenylethenyl]-1H-benzo[e]indole derivatives and uses thereof” (Kaunas University of Technology, priority 2023, dated 2025).

Read-outs that look alike come from different tables or passages of the source.

A short description of data set [1]: Absorption and fluorescence properties in water. Type of data set: physicochemical. The settings on record: for λem: excitation wavelength 380 nm. How it is done: To determine the wavelength of light, at which 1,1-dimethyl-2-[(E)-2-phenylethenyl]-1H-benzo[e]indole derivatives should be irradiated for the investigation of their photodynamic activity, the absorption and fluorescence properties thereof were measured in water. The excitation wavelength λex was set to 380 nm. Based on the results an in-house constructed LED based light source specifically designed for the irradiation of 96-well microplates and Petri dishes (Tomecka et al., CZ302829B6, 2006) was chosen, with a maximal wavelength emission of 414 nm and light intensity set to 20 mW/cm^2.

In data set [2] the test system is G361 cells (human skin melanoma). Description: MTT cell viability assay with photodynamic treatment. The class given is cell-based. The settings on record: 4 h treatment, further 72 h, MTT. How it is done: For photodynamic treatments, G361 cells (human skin melanoma) were cultivated in DMEM medium without phenol red supplemented with 10% fetal bovine serum, 100 U/mL penicillin, 100 μg/mL streptomycin, 2 mM glutamine, at 37° C. in 5% CO2 atmosphere. Cells were treated with test compounds and after 4 h were irradiated (the maximal wavelength emission of 414 nm and different total doses up to 10 J/cm^2). Further cultivation lasted for subsequent 16, 24 or 72 h.
Cell viability (EC50) was determined using the MTT (Sigma-Aldrich) assay in 96-well microplates. Cells were seeded, next day treated with test compounds for 4 h and subsequently irradiated (the maximal wavelength emission of 414 nm and total dose of 2.5 and 10 J/cm^2). After irradiation, the cells were incubated for further 72 h and then the MTT solution was added. Cells were incubated for another 4 h at 37° C. and then the 0.1% SDS was added to the wells to solubilize the violet formazan crystals. The measurement of absorbance was carried out on reader Tecan Infinite M200Pro at 570 nm. Dark viability was measured in parallel under the same conditions without irradiation.

Setting [3] is: G-361, dark kept G361 cells, read-out: G361 - EC50, Dark.
Setting [4] is: G-361, light or radiation study, light irradiated (414 nm, 10 J/cm^2) G361 cells, irradiation, read-out: G361 - EC50, 10 J/cm^2.

With `CC1(C)C(/C=C/c2ccccc2)=Nc2ccc3ccccc3c21` [Compound 3a, 1,1-Dimethyl-2-[(E)-2-phenylethenyl]-1H-benzo[e]indole], in data set [1], the Stokes shift was 133 nm, the λabs was determined as 397 nm and the λem turned out to be 530 nm. The EC50 in data set [2] (setting [3]) worked out at 5.8 µM. For the same compound, the EC50 in data set [2] (setting [4]) worked out at 2 µM.

As for `CC1(C)C(/C=C/c2cc(C(F)(F)F)cc(C(F)(F)F)c2)=Nc2ccc3ccccc3c21` [Compound 3b, 2-{(E)-2-[3,5-Bis(trifluoromethyl)phenyl]ethenyl}-1,1-dimethyl-1H-benzo[e]indole], in data set [1], the Stokes shift is listed as 109 nm, the λabs turned out to be 400 nm and the λem was 509 nm. In data set [2] (setting [3]), the EC50 is above 10 µM. Moreover, the EC50 in data set [2] (setting [4]) is 1.3 µM.

Regarding `CC1(C)C(/C=C/c2cc([N+](=O)[O-])ccc2Cl)=Nc2ccc3ccccc3c21` [Compound 3c, 2-[(E)-2-(2-Chloro-5-nitrophenyl)ethenyl]-1,1-dimethyl-1H-benzo[e]indole], in data set [1], the Stokes shift amounted to 98 nm, the λabs was determined as 443 nm and the λem was 541 nm. Moreover, the EC50 in data set [2] (setting [3]) was 6.9 µM. Besides, in data set [2] (setting [4]), the EC50 worked out at 1.2 µM.

Consider `CC1(C)C(/C=C/c2ccc(F)cc2)=Nc2ccc3ccccc3c21` [Compound 3d, 2-[(E)-2-(4-Fluorophenyl)ethenyl]-1,1-dimethyl-1H-benzo[e]indole], for which, in data set [1], the Stokes shift is reported as 102 nm, the λabs stood at 430 nm and the λem was determined as 532 nm. Moreover, in data set [2] (setting [3]), the EC50 worked out at 7.3 µM. Further, the EC50 in data set [2] (setting [4]) amounted to 4.1 µM.

Consider `CC1(C)C(/C=C/c2ccc(C(F)(F)F)cc2)=Nc2ccc3ccccc3c21` [Compound 3e, 1,1-Dimethyl-2-{(E)-2-[4-(trifluoromethyl)phenyl]ethenyl}-1H-benzo[e]indole], for which, in data set [1], the Stokes shift worked out at 116 nm, the λabs is recorded as 415 nm and the λem is 531 nm. For the same compound, the EC50 in data set [2] (setting [3]) was determined as 3.6 µM. Further, in data set [2] (setting [4]), the EC50 came to 0.5 µM.

Take `COc1ccc(/C=C/C2=Nc3ccc4ccccc4c3C2(C)C)cc1[N+](=O)[O-]` [Compound 3f, 2-[(E)-2-(4-Methoxy-3-nitrophenyl)ethenyl]-1,1-dimethyl-1H-benzo[e]indole]: in data set [1], the Stokes shift stood at 146 nm, the λabs was 403 nm and the λem is reported as 549 nm. Moreover, the EC50 in data set [2] (setting [3]) is 4.9 µM. The EC50 in data set [2] (setting [4]) was found to be 0.2 µM.

With `CC1(C)C(/C=C/c2ccc(Cl)c([N+](=O)[O-])c2)=Nc2ccc3ccccc3c21` [Compound 3h, 2-[(E)-2-(4-Chloro-3-nitrophenyl)ethenyl]-1,1-dimethyl-1H-benzo[e]indole], in data set [1], the Stokes shift turned out to be 106 nm, the λabs is listed as 426 nm and the λem amounted to 532 nm. Also, in data set [2] (setting [3]), the EC50 was determined as 7.2 µM. The EC50 in data set [2] (setting [4]) came to 0.3 µM.

`CC1(C)C(/C=C/c2ccc(F)c([N+](=O)[O-])c2)=Nc2ccc3ccccc3c21` [Compound 3i, 2-(E)-2-(4-Fluoro-3-nitrophenyl)ethenyl-1,1-dimethyl-1H-benzo[e]indole]: in data set [1], the Stokes shift was determined as 126 nm, the λabs stood at 399 nm and the λem is 525 nm. Further, in data set [2] (setting [3]), the EC50 worked out at 7.8 µM. The EC50 in data set [2] (setting [4]) was 2.1 µM.

As to `CC1(C)C(/C=C/c2ccc(F)c(C#N)c2)=Nc2ccc3ccccc3c21` [Compound 3j, 5-[(E)-2-(1,1-Dimethyl-1H-benzo[e]indol-2-yl)ethenyl]-2-fluorobenzonitrile], in data set [1], the Stokes shift was determined as 154 nm, the λabs was found to be 369 nm and the λem came to 523 nm. Besides, in data set [2] (setting [3]), the EC50 turned out to be 5.1 µM. Also, the EC50 in data set [2] (setting [4]) came to 1.3 µM.

As for `Cc1ccc(/C=C/C2=Nc3ccc4ccccc4c3C2(C)C)cc1[N+](=O)[O-]` [Compound 3k, 1,1-Dimethyl-2-[(E)-2-(4-methyl-3-nitrophenyl)ethenyl]-1H-benzo[e]indole], in data set [1], the Stokes shift came to 98 nm, the λabs was determined as 425 nm and the λem came to 523 nm. Also, the EC50 in data set [2] (setting [3]) was found to be 6.9 µM. Further, in data set [2] (setting [4]), the EC50 stood at 1.3 µM.

As to `CC1(C)C(/C=C/c2ccc3ccccc3c2)=Nc2ccc3ccccc3c21` [Compound 3l, 1,1-Dimethyl-2-[(E)-2-(naphthalen-2-yl)ethenyl]-1H-benzo[e]indole], in data set [1], the Stokes shift was determined as 86 nm, the λabs came out at 437 nm and the λem is listed as 523 nm. Also, in data set [2] (setting [3]), the EC50 was above 10 µM. In addition, in data set [2] (setting [4]), the EC50 amounted to 1.3 µM.

Turning to `CC1(C)C(/C=C/c2cccc([N+](=O)[O-])c2)=Nc2ccc3ccccc3c21` [Compound 3m, 1,1-Dimethyl-2-[(E)-2-(3-nitrophenyl)ethenyl]-1H-benzo[e]indole], in data set [1], the Stokes shift came to 89 nm, the λabs was determined as 424 nm and the λem came to 513 nm. The EC50 in data set [2] (setting [3]) came to 2.1 µM. Besides, the EC50 in data set [2] (setting [4]) came to 0.3 µM.

As for `CC1(C)C(/C=C/c2cccc(C(F)(F)F)c2)=Nc2ccc3ccccc3c21` [Compound 3n, 1,1-Dimethyl-2-{(E)-2-[3-(trifluoromethyl)phenyl]ethenyl}-1H-benzo[e]indole], in data set [1], the Stokes shift is given as 94 nm, the λabs is given as 426 nm and the λem stood at 520 nm. For the same compound, in data set [2] (setting [3]), the EC50 was determined as 7.8 µM. Further, the EC50 in data set [2] (setting [4]) was determined as 1.3 µM.

On to `CC1(C)C(/C=C/c2cccc3ccccc23)=Nc2ccc3ccccc3c21` [Compound 3o, 1,1-Dimethyl-2-[(E)-2-(naphthalen-1-yl)ethenyl]-1H-benzo[e]indole], for which, in data set [1], the Stokes shift stood at 113 nm, the λabs was found to be 445 nm and the λem was determined as 558 nm. Also, in data set [2] (setting [3]), the EC50 was above 10 µM. In addition, the EC50 in data set [2] (setting [4]) is 0.4 µM.

For `CC1(C)C(/C=C/c2ccccc2[N+](=O)[O-])=Nc2ccc3ccccc3c21` [Compound 3p, 1,1-Dimethyl-2-[(E)-2-(2-nitrophenyl)ethenyl]-1H-benzo[e]indole], in data set [1], the Stokes shift came to 132 nm, the λabs turned out to be 434 nm and the λem came out at 566 nm. For the same compound, the EC50 in data set [2] (setting [3]) is 7.8 µM. In addition, the EC50 in data set [2] (setting [4]) was found to be 1.1 µM.
